PubChem BioAssay AID2400 (Broad Institute, 2010)
Values joined by “and” are separate entries in the source; they are usually repeats but may differ in a detail not shown here. Equal values may be shown once. Active and inactive are the calls of the source.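 The calls were made as follows: active = fitted EC50 at or below ten times the top tested concentration; inconclusive = flat fit with activity between 30% and 70%, or an unusable fit; inactive = EC50 beyond ten times the top tested concentration.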

System: S. cerevisiae GRE-beta-galactosidase reporter, luminescence, 75 min
Test: loss of DOC-induced GRE-beta-galactosidase reporter signal, dose response, Hsp90 inhibitor project, S. cerevisiae, luminescence (AID 2400)

Row | SMILES | EC50
1 | CC1CCC(C(C)C)C(OC(=O)Cn2c(-c3ccc(Br)cc3)[n+](C)c3ccccc32)C1 (configuration not stated) | > 16 µM (inactive)
2 | NC(=NCCCCCCN=C(N)/N=C(\N)Nc1ccc(Cl)cc1)/N=C(\N)Nc1ccc(Cl)cc1 | > 16 µM (inactive) and > 15 µM (inactive)
